c1cnc2[nH]ccc2c1
solubility (mole fraction) (in THF, 278.15 K): 0.343
solubility (mole fraction) (in THF, 283.15 K): 0.361
solubility (mole fraction) (in THF, 288.15 K): 0.377
solubility (mole fraction) (in THF, 293.15 K): 0.397
solubility (mole fraction) (in THF, 298.15 K): 0.419
solubility (mole fraction) (in THF, 303.15 K): 0.436
solubility (mole fraction) (in THF, 308.15 K): 0.458
solubility (mole fraction) (in THF, 313.15 K): 0.479
solubility (mole fraction) (in THF, 318.15 K): 0.5
solubility (mole fraction) (in THF, 323.15 K): 0.523
solubility (mole fraction) (in acetone, 278.15 K): 0.262
solubility (mole fraction) (in acetone, 283.15 K): 0.282
solubility (mole fraction) (in acetone, 288.15 K): 0.301
solubility (mole fraction) (in acetone, 293.15 K): 0.322
solubility (mole fraction) (in acetone, 298.15 K): 0.341
solubility (mole fraction) (in acetone, 303.15 K): 0.361
solubility (mole fraction) (in acetone, 308.15 K): 0.383
solubility (mole fraction) (in acetone, 313.15 K): 0.402
solubility (mole fraction) (in acetone, 318.15 K): 0.423
solubility (mole fraction) (in acetone, 323.15 K): 0.443
solubility (mole fraction) (in acetonitrile, 278.15 K): 0.11
solubility (mole fraction) (in acetonitrile, 283.15 K): 0.116
solubility (mole fraction) (in acetonitrile, 288.15 K): 0.124
solubility (mole fraction) (in acetonitrile, 293.15 K): 0.134
solubility (mole fraction) (in acetonitrile, 298.15 K): 0.145
solubility (mole fraction) (in acetonitrile, 303.15 K): 0.159
solubility (mole fraction) (in acetonitrile, 308.15 K): 0.174
solubility (mole fraction) (in acetonitrile, 313.15 K): 0.193
solubility (mole fraction) (in acetonitrile, 318.15 K): 0.214
solubility (mole fraction) (in acetonitrile, 323.15 K): 0.242
solubility (mole fraction) (in ethanol, 278.15 K): 0.152
solubility (mole fraction) (in ethanol, 283.15 K): 0.172
solubility (mole fraction) (in ethanol, 288.15 K): 0.191
solubility (mole fraction) (in ethanol, 293.15 K): 0.211
solubility (mole fraction) (in ethanol, 298.15 K): 0.232
solubility (mole fraction) (in ethanol, 303.15 K): 0.252
solubility (mole fraction) (in ethanol, 308.15 K): 0.275
solubility (mole fraction) (in ethanol, 313.15 K): 0.299
solubility (mole fraction) (in ethanol, 318.15 K): 0.326
solubility (mole fraction) (in ethanol, 323.15 K): 0.356
solubility (mole fraction) (in ethyl acetate, 278.15 K): 0.21
solubility (mole fraction) (in ethyl acetate, 283.15 K): 0.217
solubility (mole fraction) (in ethyl acetate, 288.15 K): 0.226
solubility (mole fraction) (in ethyl acetate, 293.15 K): 0.237
solubility (mole fraction) (in ethyl acetate, 298.15 K): 0.251
solubility (mole fraction) (in ethyl acetate, 303.15 K): 0.265
solubility (mole fraction) (in ethyl acetate, 308.15 K): 0.283
solubility (mole fraction) (in ethyl acetate, 313.15 K): 0.302
solubility (mole fraction) (in ethyl acetate, 318.15 K): 0.324
solubility (mole fraction) (in ethyl acetate, 323.15 K): 0.346
solubility (mole fraction) (in isopropanol, 278.15 K): 0.204
solubility (mole fraction) (in isopropanol, 283.15 K): 0.217
solubility (mole fraction) (in isopropanol, 288.15 K): 0.231
solubility (mole fraction) (in isopropanol, 293.15 K): 0.247
solubility (mole fraction) (in isopropanol, 298.15 K): 0.262
solubility (mole fraction) (in isopropanol, 303.15 K): 0.279
solubility (mole fraction) (in isopropanol, 308.15 K): 0.298
solubility (mole fraction) (in isopropanol, 313.15 K): 0.315
solubility (mole fraction) (in isopropanol, 318.15 K): 0.336
solubility (mole fraction) (in isopropanol, 323.15 K): 0.36
solubility (mole fraction) (in methanol, 278.15 K): 0.228
solubility (mole fraction) (in methanol, 283.15 K): 0.238
solubility (mole fraction) (in methanol, 288.15 K): 0.25
solubility (mole fraction) (in methanol, 293.15 K): 0.262
solubility (mole fraction) (in methanol, 298.15 K): 0.277
solubility (mole fraction) (in methanol, 303.15 K): 0.293
solubility (mole fraction) (in methanol, 308.15 K): 0.31
solubility (mole fraction) (in methanol, 313.15 K): 0.33
solubility (mole fraction) (in methanol, 318.15 K): 0.351
solubility (mole fraction) (in methanol, 323.15 K): 0.372
solubility (mole fraction) (in n-hexane, 278.15 K): 0.0192
solubility (mole fraction) (in n-hexane, 283.15 K): 0.0201
solubility (mole fraction) (in n-hexane, 288.15 K): 0.0215
solubility (mole fraction) (in n-hexane, 293.15 K): 0.0234
solubility (mole fraction) (in n-hexane, 298.15 K): 0.0256
solubility (mole fraction) (in n-hexane, 303.15 K): 0.0279
solubility (mole fraction) (in n-hexane, 308.15 K): 0.0307
solubility (mole fraction) (in n-hexane, 313.15 K): 0.0337
solubility (mole fraction) (in n-hexane, 318.15 K): 0.0376
solubility (mole fraction) (in n-hexane, 323.15 K): 0.0425
solubility (mole fraction) (in n-propanol, 278.15 K): 0.19
solubility (mole fraction) (in n-propanol, 283.15 K): 0.202
solubility (mole fraction) (in n-propanol, 288.15 K): 0.215
solubility (mole fraction) (in n-propanol, 293.15 K): 0.233
solubility (mole fraction) (in n-propanol, 298.15 K): 0.253
solubility (mole fraction) (in n-propanol, 303.15 K): 0.272
solubility (mole fraction) (in n-propanol, 308.15 K): 0.291
solubility (mole fraction) (in n-propanol, 313.15 K): 0.312
solubility (mole fraction) (in n-propanol, 318.15 K): 0.333
solubility (mole fraction) (in n-propanol, 323.15 K): 0.359
